Reference: patent US20100137676A1, “N-ACETYLCYSTEINE AMIDE (NAC AMIDE) FOR TREATMENT OF OXIDATIVE STRESS ASSOCIATED WITH INFERTILITY” (priority 2005, published 2010)

Columns and labels:
[1] = tested on: porcine oocytes / embryos; assay: Embryo development after intracytoplasmic sperm injection (ICSI) with NAC amide supplementation (Example 4); format: cell-based; details: of 24 oocytes
From the text: (§1) This Example investigates the effects of NAC amide supplementation to culture media during porcine oocyte maturation, fertilization, and embryo culture on intracellular concentrations of GSH after oocyte maturation, IVF parameters, success of intracytoplasmic sperm injection (ICSI), and embryo development following ICSI and pronuclear microinjection.
(§2) All chemicals, unless otherwise specified, were obtained from Sigma Chemical Company (St. Louis, Mo.) and were of embryo grade quality. Dr. Glenn Goldstein and associates provided the NAC amide. Oocytes (BoMed, Madison, Wis.) were maturated for 20 to 24 h in tissue culture medium 199 supplemented with Earle's salts, 0.01 U/mL LH and FSH, antibiotics, and 10% fetal calf serum under mineral oil (Specialty Media, Phillipsburg, N.J.) at 39° C. in an atmosphere of 5% CO2 and then for an additional 20 to 24 h without hormones.
Cumulus cells were removed by agitation with 0.1% hyaluronidase, washed and placed in microdrops of NCSU-23 culture medium (108.73 mM NaCl, 4.78 mM KCl, 1.19 mM KH2PO4, 1.19 mM MgSO4.7H2O, 5.5 mM glucose, 1 mM glutamine, 7 mM taurine 5 mM hypotaurine, 25.07 mM NaHCO3, 1.7 mM CaCl2.2H2O, 75 μg/mL Penicillin G, 50 μg/mL Streptomycin, 4 mg/mL BSA, pH 7.4) with mineral oil overlay at 39° C. after centrifugation at 15000×g. Frozen-thawed sperm were then placed in an adjacent microdrop. […]

[2] = tested on: mammalian red blood cells (RBCs); details: cited from earlier work
porcine putative zygotes = assay: In vitro fertilization parameter evaluation by nuclear staining of putative zygotes; format: cell-based; details: 12 hours after IVF; n=4 zygotes per group; preliminary, subjective
Method: (§3) Experimental Design: Three trials were conducted, each trial utilizing 30 porcine oocytes per treatment group (90 total oocytes per each of four treatment groups). Oocytes were purchased from Trans Ova Genetics, Sioux City, Iowa. Treatment groups were: 1) Control (no supplemental anti-oxidants); 2) GSH supplementation (1.0 mM); 3) NAC supplementation (1.0 mM); and 4) NAC amide supplementation (1.0 mM).
(§4) In vitro Fertilization (IVF) of Oocytes: Cumulus cells by were removed by agitation with 0.1% hyaluronidase, washed and placed in Tris-fertilization medium (113.1 mM NaCl, 3 mM KCl, 7.5 mM CaCl2.2H2O, 20 mM Tris, 11 mM D (+)-glucose, 5 mM sodium pyruvate, 1 mg/mL BSA, 2 mM caffeine) with mineral oil overlay and freeze-thawed spermatozoa were added at a concentration of 2000 spermatozoa/oocyte. The gametes were incubated at 39° C. in an atmosphere of 5% CO2 for approximately 6 hours.
In vitro Fertilization Parameter Evaluation: Fertilization was analyzed 12 hours after IVF by fixing the oocytes on a microscope slide with 25% (v:v) acetic acid in ethanol at room temperature for 48 hours. Oocytes were stained with 1% orcein in 45% (v:v) acetic acid and examined using a phase-contrast microscope at 400× magnification.
Fertilization parameters were subjectively examined by nuclear staining samples (n=4) of putative zygotes from each of the treatment groups 12 hours after IVF was complete (Illustration 1, * indicates pronucleus). In the preliminary analysis, only a small number of zygotes were subjected to staining, since the intent of the studies described herein was to assess the number of zygotes that continued development to the 2-cell and blastocyst stages. This analysis was simply to see if any obvious anomalies were occurring.

[3] = tested on: porcine oocytes / embryos; assay: Embryo development to 2-cell and blastocyst stage after IVF in supplemented media (Example 1); format: cell-based; details: for % embryos reaching 2-cell stage of development / % embryos reaching blastocyst stage of development (of those in observed in the 2-cell stage): supplementation 1.0 mM, IVF; for % embryos reaching 2-cell stage of development: control 19; for % embryos reaching blastocyst stage of development (of those in observed in the 2-cell stage): culture to blastocyst stage, control 40
Method: (§5) This Example describes an evaluation of the effects of NAC amide, glutathione (GSH) and N-acetylcysteine (NAC) supplementation to incubation and culture media during porcine oocyte maturation, fertilization and embryo culture on various measures of fertilization and embryo development, as well as on the intracellular concentration of GSH.
as §3
(§6) In vitro Maturation: Oocytes were maturated for 20 to 24 hours in tissue culture medium 199 with Earle's salts, 0.01 U/mL LH and FSH, 10 ng/mL EGF, antibiotics, and 10% fetal calf serum under mineral oil (Specialty Media, Phillipsburg, N.J.) at 39° C. in an atmosphere of 5% CO2 and then for an additional 20 to 24 h without hormones.
as §4
In vitro Culture: Putative zygotes were washed and incubated in NCSU-23 culture medium (108.73 mM NaCl, 4.78 mM KCl, 1.19 mM KH2PO4, 1.19 mM MgSO4.7H2O, 5.5 mM glucose, 1 mM glutamine, 7 mM taurine 5 mM hypotaurine, 25.07 mM NaHCO3, 1.7 mM CaCl2.2H2O, 75 μg/mL Penicillin G, 50 μg/mL Streptomycin, 4 mg/mL BSA, pH 7.4) with mineral oil overlay at 39° C. in an atmosphere of 5% CO2 for 48 hours. After 48 hours, embryos that had undergone the first cell division were placed in fresh NCSU 23 culture media in the same manner as described above until blastocyst formation, 144 hours post-IVF.
The remaining zygotes were cultured through the blastocyst stage of development ([…]) in their respective media and their development and viability progress was recorded (Table 2). NAC amide supplementation of the culture medium enhanced the development of zygotes to the 2-cell stage and further aided the subsequent final percentage of those embryos reaching the 2-cell stage that continued development onto the blastocyst stage (the endpoint of in vitro analysis).

[4] = tested on: porcine oocytes / embryos; assay: Embryo development after IVF with NAC amide supplementation (Example 4); format: cell-based; details: of 70 oocytes
From the text: as §1, §2
as §4, with “Cumulus” for “In vitro Fertilization (IVF) of Oocytes: Cumulus”, “cells” for “cells by”, “D(+)-glucose,” for “D (+)-glucose,”, “frozen-thawed” for “freeze-thawed”, “h. […]” for “hours.”

[5] = cell-free system; cited from earlier work
porcine oocytes = assay: Glutathione assay: intracellular GSH concentration per oocyte after supplementation of maturation medium; format: cell-based; details: supplementation 1.0 mM; for GSH concentration/oocyte: porcine oocytes, control 3.19
Method: as §5, §3, §6
Glutathione Assay: Oocytes were washed in PBS, frozen, and ruptured using a blunt glass rod in phosphoric acid. The assay was performed as described previously (B. D. Whitaker and J. W. Knight, 2004, Theriogenology, 62:311-322) and the amount of GSH was determined using a standard curve of concentration GSH versus rate of change in absorbency.

## N-acetylcysteine amide [NAC amide]
[1]; control 2 of 25
  # of Embryos reaching blastocyst stage of development: 5
[1]; control 5 of 25
  # of Embryos reaching 2-cell stage of development: 12
[2]; RBCs
  hemoglobin oxidation: protected hemoglobin from oxidation
  tert.-butylhydroxyperoxide (BuOOH)-induced intracellular oxidation: inhibit
[2]; externally applied, compared with NAC
  restoration of thiol-depleted RBCs: significantly greater than that found using NAC
Porcine putative zygotes
  changes on fertilization events (nuclear staining): did not have any noticeable changes
[3]; 2-cell P<0.05, blastocyst P<0.10
  % of embryos developing to the 2-cell and blastocyst stages, statistical comparison: significantly greater % of embryos
[3]
  % embryos reaching 2-cell stage of development: 45%
  % embryos reaching blastocyst stage of development (of those in observed in the 2-cell stage): 85%
[4]; control 6 of 67
  # of Embryos reaching blastocyst stage of development: 12
[4]; control 10 of 67
  # of Embryos reaching 2-cell stage of development: 22
[5]
  reaction with oxidized glutathione (GSSG): react with oxidized glutathione (GSSG) to generate reduced glutathione (GSH)
Porcine oocytes
  greater increase in intracellular GSH compared with supplementation of GSH per se: 40%
  greater intracellular GSH concentration compared with NAC supplementation: 15%
  increase in intracellular GSH concentration compared with control: 2.2 fold
  GSH concentration/oocyte: 7.03 pmol
Porcine oocytes; P<0.05
  intracellular GSH concentration, statistical comparison with GSH: significantly (P<0.05) higher than GSH
  intracellular GSH concentration, statistical comparison with control: significantly (P<0.05) higher than control

## CC(=O)N[C@@H](CS)C(=O)O [NAC, N-acetylcysteine]
Porcine putative zygotes
  changes on fertilization events (nuclear staining): did not have any noticeable changes
[3]
  % embryos reaching 2-cell stage of development: 30%
  % embryos reaching blastocyst stage of development (of those in observed in the 2-cell stage): 55%
Porcine oocytes; P<0.05
  intracellular GSH concentration, statistical comparison with control: significantly (P<0.05) higher than control
Porcine oocytes
  GSH concentration/oocyte: 6.00 pmol

## N[C@@H](CCC(=O)N[C@@H](CS)C(=O)NCC(=O)O)C(=O)O [GSH, glutathione]
Porcine putative zygotes
  changes on fertilization events (nuclear staining): did not have any noticeable changes
[3]
  % embryos reaching 2-cell stage of development: 25%
  % embryos reaching blastocyst stage of development (of those in observed in the 2-cell stage): 40%
Porcine oocytes
  GSH concentration/oocyte: 4.18 pmol
